The solubility (kinetic) is solubility judged after dilution from a stock solution rather than from solid.

Experimental findings from PubChem BioAssay AID1996 are described below.

≈ marks a conversion by molar mass, not a printed value.

The conditions of this data set: buffer; pH 7.4; 200.0 µM.
Regarding `O=C(Nc1cccc(O)c1)c1ccc(S(=O)(=O)N2CCCCCC2)cc1`, the kinetic solubility came to 3.7 µg/mL (≈ 9.88 µM). Then `Cn1c(N)c(C(=O)COC(=O)CNC(=O)c2ccccc2F)c(=O)n(C)c1=O`, with over 58.9 µg/mL.

`O=C(Nc1ccccc1)Nc1ccc(NC(=O)c2ccccc2O)cc1` came in with a kinetic solubility of under 0.2 µg/mL. As for `NS(=O)(=O)c1ccc(CCNC(=O)CNC(=O)Cc2ccccc2)cc1`, the figure is over 56.3 µg/mL; as for `N#C/C(=C\c1ccc(O)cc1)C(=O)NCc1cccc(Cl)c1`, under 0.3 µg/mL.

`COc1ccc(S(=O)(=O)N2CC(C)N(C(=O)N(C)C)C2C)cc1` (centres undefined) had a solubility (kinetic) of over 51.2 µg/mL. Then `Fc1cccc(CN2CCSCC2)c1`, with 6.3 µg/mL (≈ 29.8 µM). For `Cc1cc(C)nc(Nc2cccc(C(F)(F)F)c2)n1.Cl`, the solubility (kinetic) turned out to be 1.8 µg/mL.

Compound `Cc1ccc2cc(NC(=O)c3cccc(F)c3)ccc2n1` returned a kinetic solubility of 28.6 µg/mL (≈ 102 µM). Against the preceding compound, the solubility kinetic is about 16-fold higher. Then `O=C1C(c2ccccc2)NC(=S)N1C1CCCCC1` (centres undefined), with 2.4 µg/mL (≈ 8.75 µM); and `COc1ccccc1CNC(=O)c1cc(=O)c2ccccc2o1`, with 10.8 µg/mL (≈ 34.9 µM). For `CCCC1(c2ccccc2)NC(=O)N(CC(=O)Nc2ccc(N3CCOCC3)cc2)C1=O` (centres undefined), the kinetic solubility was over 65.5 µg/mL.

Turning to `O=C(CCS(=O)(=O)c1ccc(Cl)cc1)NC1CCCC1`, the solubility (kinetic) was over 47.4 µg/mL.

`Cc1nc(-c2ccccn2)nc(N2CCOCC2)c1Cl` yielded a kinetic solubility of over 43.6 µg/mL. As for `O=c1c2[nH]cnc2n(-c2ccccc2)c(=O)n1Cc1ccccc1`, the figure is 35.1 µg/mL (≈ 110 µM); as for `COc1ccccc1C(=O)CC(=O)C(=O)Nc1cccc([N+](=O)[O-])c1C`, 15.5 µg/mL (≈ 43.5 µM). Then `CC1CCN(S(=O)(=O)c2ccc([N+](=O)[O-])cc2)CC1`, with 3.2 µg/mL (≈ 11.3 µM). As for `O=C(C1CC1)N1CCN(c2ccc([N+](=O)[O-])cc2-n2cccc2)CC1`, the figure is 6.3 µg/mL (≈ 18.5 µM); as for `Cn1cc(-c2ccccc2C(N)=O)c(=O)c2cc(Cl)ccc21`, 46.3 µg/mL (≈ 148 µM).

For the compound `COc1ccc(C(=O)NC(=S)N(C)C2CCCCC2)cc1`, the solubility (kinetic) worked out at 5.5 µg/mL (≈ 17.9 µM). This solubility kinetic lies about 8.4-fold lower than the previous one. Then `CC(=O)c1ccc(OCC(=O)NC2CCCCCC2)cc1`, with over 43.4 µg/mL; and `CN(Cc1ccccc1)C(=O)COC(=O)C12CC3CC(CC(Br)(C3)C1)C2`, with 18.8 µg/mL (≈ 44.7 µM). As for `CCOc1cccc(C(=O)NC(=S)Nc2ccc(Cl)cc2C(=O)O)c1`, the figure is 55.2 µg/mL (≈ 146 µM); as for `Cc1cc(C)cc(NC(=O)c2cccc(N3C(=O)C4C5C=CC(C5)C4C3=O)c2)c1` (centres undefined), under 0.4 µg/mL. As for `O=C(Nc1ccc2[nH]c(=O)[nH]c2c1)C(F)(F)F`, the figure is 23.9 µg/mL (≈ 97.5 µM); as for `CC(C)CCNC(=O)c1ccc(-n2cnc3cccnc32)cc1`, over 46.3 µg/mL; as for `Cc1ccc(S(=O)(=O)N2CCCCC2)cc1NC(=O)C1CCC1`, 16.4 µg/mL (≈ 48.7 µM). `O=C(/C=C/c1ccco1)N1CCN(c2ccc(F)cc2)CC1` registered a kinetic solubility of 5.6 µg/mL (≈ 18.6 µM). As for `O=C(O)CCC(=O)Nc1ccc(-c2nc3ccc(C(=O)c4ccccc4)cc3[nH]2)cc1`, the figure is 60.1 µg/mL (≈ 145 µM). `Cn1cccc2[nH]c(=O)nc1-2` showed a solubility (kinetic) of 15.5 µg/mL (≈ 104 µM). This solubility kinetic lies about 3.9-fold lower than the previous one. For `O=C1CSC(c2cccnc2)N1Cc1ccc(Cl)cc1` (centres undefined), the solubility (kinetic) was 42.6 µg/mL (≈ 140 µM). This solubility kinetic lies about 2.7-fold higher than the previous one. As for `O=c1c([N+](=O)[O-])c(O)c2cccc3c2n1CCC3`, the figure is 36.3 µg/mL (≈ 147 µM); as for `Br.COc1cccc(CNCC2CCCO2)c1` (centres undefined), 44.1 µg/mL. As for `CN(c1ccccc1)S(=O)(=O)c1ccc2c(c1)oc(=O)n2C`, the figure is 27.1 µg/mL (≈ 85.1 µM). Then `CC(=O)c1cccc(N2C(=O)CC(N3CCN(S(=O)(=O)c4ccccc4F)CC3)C2=O)c1` (centres undefined), with over 68.9 µg/mL; and `COc1ccc(NC(=O)N[C@@H](CCSC)C(=O)O)cc1OC`, with over 49.3 µg/mL; and `COc1ccccc1S(=O)(=O)N1CCNC(=O)C1`, with over 40.5 µg/mL.

In turn, `CC(=O)c1ccc(N2C(=O)CC(N3CCN(S(=O)(=O)c4ccc(C)c(C)c4)CC3)C2=O)cc1` (centres undefined) displayed a solubility (kinetic) of 15 µg/mL (≈ 31.9 µM). As for `COc1ccc2cc(C(=O)NCCCN3CCCC3=O)[nH]c2c1`, the figure is over 47.3 µg/mL; as for `Cc1ccccc1OCC(=O)OCC(=O)Nc1ccc2c(c1)OCO2`, 14.9 µg/mL (≈ 43.4 µM); as for `CCOCCn1c2ccccc2c2nc3ccccc3nc21`, 4.1 µg/mL (≈ 14.1 µM). Then `COc1ccc(CCNC2=CC(=O)CC(C)(C)C2)cc1`, with 40.4 µg/mL (≈ 148 µM); and `COc1ccccc1C(=O)NC(=O)CSc1nnc(C)s1`, with over 48.5 µg/mL. As for `CC(C)c1ccc(/C=C2\NC(=O)NC2=O)cc1`, the figure is 13.9 µg/mL (≈ 60.4 µM); as for `CN(C)CCNC(=O)C(c1ccccc1)c1ccccc1`, 37.9 µg/mL (≈ 134 µM).

The compound `O=C(NC1CCCc2ccccc21)C12CC3CC(CC(O)(C3)C1)C2` (centres undefined) came in with a solubility (kinetic) of 41.4 µg/mL (≈ 127 µM). Then `COC(=O)c1ccc(/C=N/OCC(=O)NCc2ccc(F)cc2)cc1`, with 10.3 µg/mL (≈ 29.9 µM); and `O=S(=O)(NCC1COc2ccccc2O1)c1ccccc1F` (centres undefined), with over 48.5 µg/mL.

Take `COc1ccc(/C=C2\C(=O)NCC(=O)N2C)cc1`: the kinetic solubility was found to be 11.4 µg/mL (≈ 46.3 µM). Then `O=C(COC(=O)c1ccc(S(=O)(=O)N2CCOCC2)cc1)NCc1ccccc1`, with 8.6 µg/mL (≈ 20.6 µM). As for `COc1ccccc1N1C(=O)CC(N(O)c2ccccc2)C1=O` (centres undefined), the figure is over 46.8 µg/mL; as for `CC(C)CCNC(=O)C1(c2cccs2)CCOCC1`, over 42.2 µg/mL; as for `CC(=O)Nc1ccc(NC(=O)c2cccc(S(=O)(=O)N3CCCCCC3)c2)cc1`, 5.3 µg/mL (≈ 12.8 µM). Take `Cc1ccc2cc(S(=O)(=O)NCCCN3CCOCC3)ccc2c1`: the kinetic solubility is over 52.3 µg/mL. As for `CN(C)Cc1ccccc1C(O)(c1ccccc1)c1ccccc1`, the figure is 1.2 µg/mL (≈ 3.78 µM); as for `CCc1ccccc1NCc1cc(=O)oc2cc(C)ccc12`, 0.7 µg/mL (≈ 2.39 µM). As for `O=C(COC(=O)/C=C/c1ccccc1)NC1CCCCCC1`, the figure is 10.4 µg/mL (≈ 34.5 µM). As for `CC1CN(C(=O)c2ccc(NS(=O)(=O)c3ccc(C(C)(C)C)cc3)cc2)CC(C)O1` (centres undefined), the figure is 48 µg/mL (≈ 111 µM); as for `N#CCOc1coc(CN2CCN(c3ccccc3)CC2)cc1=O`, over 48.8 µg/mL; as for `Cc1cccc(CCN=C(N)NS(=O)(=O)c2ccccc2)c1`, over 47.6 µg/mL. For `CCCN(CC(=O)Nc1ccccc1OC)C(=O)c1ccc(=O)[nH]c1`, the kinetic solubility is over 51.5 µg/mL.

With `O=C(O)COc1ccc(NC(=O)C(c2ccccc2)c2ccccc2)cc1`, the kinetic solubility is over 54.2 µg/mL. Then `Nc1ccc2oc(=O)c(-c3ccccc3)cc2c1`, with 19.3 µg/mL (≈ 81.3 µM). As for `COc1ccc(C2c3ccc(O)cc3Oc3ncn(CC(C)C)c(=N)c32)cc1` (centres undefined), the figure is 53.8 µg/mL (≈ 143 µM); as for `O=C(NCCc1c[nH]c2ccccc12)c1ccc(F)cc1F`, over 45 µg/mL. Then `Cc1ccc(CC(=O)NCCCn2ccnc2)cc1`, with over 38.6 µg/mL.

As for `Cc1c(C)n(-c2ccc(Cl)cc2)c2ncnc(N)c12`, the solubility (kinetic) turned out to be 7.4 µg/mL (≈ 27.1 µM). Then `Cc1cc(/C=C2\NC(=O)NC2=O)c(C)n1-c1cccnc1`, with 40.2 µg/mL (≈ 142 µM); and `Cc1ccccc1-c1nc2cc(Cl)ccc2c(=O)o1`, with under 0.6 µg/mL.

As for `CC(=O)Nc1ccc(S(=O)(=O)NCCC(=O)OCC(=O)NCc2ccccc2)cc1`, the solubility (kinetic) was over 65 µg/mL.

For the compound `Cc1cc(C(=O)Nc2cccc3ccccc23)c(C)o1`, the kinetic solubility was 4 µg/mL (≈ 15.1 µM).

Turning to `Br.c1ccc(NC2=NCCCS2)cc1`, the kinetic solubility was over 41 µg/mL. As for `NC(=O)c1cccc(NC(=O)Nc2ccc(Cl)cc2)c1`, the figure is 4.6 µg/mL (≈ 15.9 µM); as for `CNCCc1ccc(OC)c(OC)c1`, over 29.3 µg/mL.

With `COc1cccc(C(=O)Nc2ccc3c(C)cc(=O)oc3c2)c1`, the kinetic solubility was under 0.7 µg/mL. Then `CCCN1C2CCCC1CC(NC(=S)Nc1ccc(OC)cc1)C2` (centres undefined), with over 52.1 µg/mL; and `Cc1ccc(NC(=O)c2cnccn2)nc1`, with over 32.1 µg/mL; and `O=C(/C=C/c1ccccc1[N+](=O)[O-])N1CCc2ccccc2C1`, with 20.3 µg/mL (≈ 65.8 µM). As for `Fc1ccc2nc(Nc3ccccc3)sc2c1`, the figure is 0.5 µg/mL (≈ 2.05 µM); as for `Cc1[nH]c2ccccc2c1C(=O)C(=O)NCCCn1ccnc1`, over 46.6 µg/mL; as for `CCNC(=S)Nc1sc2c(c1C#N)CCC(C)C2` (centres undefined), 1.1 µg/mL (≈ 3.94 µM). The compound `COc1ccc(OC)c(NC(=O)NC2CCCc3ccccc32)c1` (centres undefined) registered a solubility (kinetic) of 0.7 µg/mL (≈ 2.14 µM). This solubility kinetic lies about 1.6-fold lower than the previous one. As for `O=C(COC(=O)Cc1ccccc1F)NC(=O)NC1CCCC1`, the figure is 42.5 µg/mL (≈ 132 µM); as for `COc1ccc(CCNCC(=O)Nc2ccc(OC(F)F)cc2)cc1`, 34.4 µg/mL (≈ 98.2 µM); as for `c1ccc(Nc2ncnc3sccc23)cc1`, over 34.1 µg/mL. Then `CCCCNCc1cc2ccccc2o1.Cl`, with 31.7 µg/mL; and `Cc1ccc(-c2[nH]c3ccccc3c2SCCN)cc1`, with over 42.4 µg/mL; and `CCOC(=O)N1CCN(CCC(=O)Nc2ccc(F)c(F)c2)CC1`, with over 51.2 µg/mL. As for `Cc1ccc(Nc2nc(N)c([N+](=O)[O-])c(NCCO)n2)cc1`, the figure is 18.7 µg/mL (≈ 61.5 µM); as for `CCCn1c(=O)c2ccccc2n2c(=S)[nH]nc12`, over 39 µg/mL. Take `Cc1cc(OCC(=O)N(C)C2CCCCC2)ccc1Cl`: the kinetic solubility turned out to be 35.5 µg/mL (≈ 120 µM). Then `Br.O=C(CN1CCCCC1)c1ccccc1F`, with over 45.3 µg/mL; and `CCCCCC(=O)Nc1ccc(-c2csc(N)n2)cc1`, with 5.9 µg/mL (≈ 20.4 µM). As for `NC(N)=NC(N)=Nc1ccccc1`, the figure is over 26.6 µg/mL. Regarding `O=Cc1cn(CC(=O)Nc2ccccc2)c2ccccc12`, the solubility (kinetic) was determined as 4.1 µg/mL (≈ 14.7 µM). Consider `N#CCc1cc2ccc3cccc4ccc(c1)c2c34`, for which the kinetic solubility was under 0.5 µg/mL. As for `CCn1c(C)nc2cc(C#N)ccc21`, the figure is over 27.8 µg/mL; as for `Cc1cc(=O)[nH]c(SC(C)C(=O)Nc2cccc3ccccc23)n1` (centres undefined), 42.7 µg/mL (≈ 126 µM).

The compound `Cc1c(N2C(=O)CSC2c2ccco2)c(=O)n(-c2ccccc2)n1C` (centres undefined) showed a kinetic solubility of over 53.3 µg/mL.

In turn, `COc1ccc2oc(=O)c(N3C(=O)c4ccccc4C3=O)cc2c1` showed a solubility (kinetic) of 1.2 µg/mL (≈ 3.73 µM).

For `O=C(Nc1ccncc1)c1ccc2ccccc2c1`, the solubility (kinetic) worked out at 16.5 µg/mL (≈ 66.5 µM). Take `Cc1ccc(NC(=O)c2cnccn2)c(Br)c1`: the kinetic solubility was found to be 4.2 µg/mL (≈ 14.4 µM). Take `NS(=O)(=O)c1ccc(NC(=O)c2cccc(Cl)c2)cc1`: the kinetic solubility came out at 10 µg/mL (≈ 32.2 µM). As for `O=C1CCC(=O)N1CCSC(=S)N1CCSCC1`, the figure is over 45.7 µg/mL.
